Key:
EpiOcular™ tissues = format: cell-based; conditions: human, 30 min, 200 µg EO/cm^2
Description: The EpiOcular™ eye irritation test (Stern, Klausner et al., 1998) (OCL-200-EIT) purchased by MatTek was used in this study to evaluate the eye irritation potential of nano-emulsion 1 of Example 2 (Yarrow essential oil (2% Achillea millefolium essential oil)) or of nano-emulsion 2 of Example 2 (mixture of 1% Yarrow essential oil (Achillea millefolium essential oil) with 1% Lavandin oil (Hybrid Lavandula intermedia essential oil) [1:1 w/w]).
Fresh tissues are equilibrated at RT for 15 min, then, transferred onto 6-well plates and pre-incubated at standard culture conditions for 1 hour in assay medium, which is DMEM based medium (MatTek), then, replaced, and tissues are incubated overnight under standard culture conditions. The tissues are prehydrated with Ca^++Mg^++Free-DPBS and incubated at standard culture conditions for 30±2 min. Each nano-emulsion (dose: 200 µg EO/cm^2) and control samples are applied topically on the EpiOcular™ tissues. The tissues are incubated for 30±2 min followed by removal of the nano-emulsions by extensive rinsing of the tissues with Ca^++Mg^++Free-DPBS. […] Finally, the MTT assay is performed, and the relative tissue viability is calculated for each tissue as % of the mean viability of the negative control tissues. […]

3D human skin tissues = assay: Histological analysis (eosin and hematoxylin) after 48 h topical application; format: cell-based; conditions: dose 200 µg EO/cm^2, 48 hours; Figure 8
Description: Following topical application of nano-emulsion 1 of Example 2 (Yarrow essential oil (2% Achillea millefolium essential oil)) or of nano-emulsion 2 of Example 2 (mixture of 1% Yarrow essential oil (Achillea millefolium essential oil) with 1% Lavandin oil (Hybrid Lavandula intermedia essential oil) [1:1 w/w]) on 3D human skin tissues, for 48 hours, skin specimens are collected and further processed for: [1] histological analysis (Furio, Pampalakis et al., 2015) and [2] molecular analysis.
First, 3D-reconstructed human skin tissue culture media is replaced with fresh, pre-warmed media. Under sterile conditions, tissues are exposed topically to each test nano-emulsion (dose, 200 µg EO/cm^2). 5% SDS a widely known skin irritant was used as positive control. […] Alternatively, total RNA was extracted from 3D human skin tissues (Macherey-Nagel) to quantify relative expression of tight junction proteins with the aim to test for potential alterations in expression levels (Figure 9 ). Then, synthesized cDNAs (SuperScript™ First-Strand Synthesis System for RT-PCR, Invitrogen) were used as template for RT-qPCR (SYBR™ Select, Applied Biosystems) to quantify the relative expression levels of tight junction proteins encoding genes using the gene-specific primers enlisted in Table 8. […]

Epiderm™ tissues = assay: EpiDerm skin irritation test (EPI-200-SIT), MTT tissue viability; format: cell-based, human
Source text: The EpiDerm™ skin irritation test kit (Schafer-Korting, Bock et al., 2008) (EPI-200-SIT) was purchased by MatTek (https://www.mattek.com/) and used in this study. The value of this method lies in that it provides in vivo prediction for classification testing of the nano-emulsions as irritant or non-irritant, based on in vitro results. According to the EU and GHS classification (R38/ Category 2 or no label), an irritant is predicted if the mean relative tissue viability of individual tissues exposed to the test substance is reduced below 50% of the mean viability of the negative controls run in parallel.
The experimental procedure for the skin irritation test is the following. Fresh tissues are transferred onto 6-well plates and pre-incubated under standard culture conditions for 1 hour in the assay medium (DMEM based medium, MatTek). Then, the assay medium is replaced by fresh assay medium, and tissues are incubated overnight. […] Then, the blue formazan salt formed by cellular mitochondria is extracted with 2.0 ml/tissue of isopropanol (extractant solution, part # MTT-100-EXT) and the optical density of the extracted formazan is determined at 570 nm using a spectrophotometer. Relative tissue viability is calculated for each tissue as % of the mean viability of the negative control tissues. […]

Q: COC(C)=O [PC, methyl acetate] was tested. Which “Mean of viabilities, %” value (EpiOcular™ tissues) did it give?
A: The value was 13.46%.

Q: And the “skin morphology by eosin and hematoxylin staining” value (3D human skin tissues)?
A: Its value is “high degree of damage”.

Q: And the Classification (Epiderm™ tissues; skin irritation, prediction model developed by MatTek)?
A: Its Classification is “I, qualified (I, irritant)”.

Q: And the “Mean of viabilities, %” value (Epiderm™ tissues; skin, dose 200 µg EO/cm^2, 60±1 min exposure, % of mean viability of negative control, 2 tissues)?
A: The value was 2.828%.

— patent publication EP4321023A1, “MOSQUITO REPELLENT COMPOSITION COMPRISING YARROW ESSENTIAL OIL” (National Hellenic Research Foundation, priority 2022, dated 2024)
